Test results: PubChem BioAssay AID248 (DTP/NCI, 2004)
Several values for one entry are separate records, joined by “and”; a condition that tells them apart may be missing. Identical values can stand only once. Toxic doses and inconclusive results are not listed. Cut-off read from the data, not from the text of the source: active = T/C of 150% or more; inactive = T/C below 125%.

System: L1210 leukemia ip in BDF1 mice, survival T/C
Test: NCI In Vivo Anticancer Drug Screen. Data for tumor model L1210 Leukemia (intraperitoneal) in B6D2F1 (BDF1) mice
Settings: endpoint: mean survival time, higher = longer survival
Method in brief: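 Mice bearing the transplanted tumor received compound or vehicle. Survival of the treated group was divided by that of the vehicle-treated control group to give the ratio.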

[1] = dose: 25.0 mg/kg/injection, schedule: Q01DX009 (ip), vehicle: Klucel (hydroxypropylcellulose) (HPC)
[2] = dose: 50.0 mg/kg/injection, schedule: Q01DX009 (ip), vehicle: Klucel (hydroxypropylcellulose) (HPC)
[3] = dose: 100.0 mg/kg/injection, schedule: Q01DX009 (ip), vehicle: Klucel (hydroxypropylcellulose) (HPC)
[4] = dose: 100.0 mg/kg/injection, schedule: Q04DX003 (ip), vehicle: saline with Tween-80
[5] = dose: 400.0 mg/kg/injection, schedule: Q04DX002 (ip), vehicle: saline with Tween-80
[6] = dose: 100.0 mg/kg/injection, schedule: Q04DX003 (ip), vehicle: saline
[7] = dose: 200.0 mg/kg/injection, schedule: Q04DX003 (ip), vehicle: saline
[8] = dose: 100.0 mg/kg/injection, schedule: Q01DX009 (ip), vehicle: saline with Tween-80
[9] = dose: 100.0 mg/kg/injection, schedule: Q04DX002 (ip), vehicle: saline with Tween-80
[10] = dose: 200.0 mg/kg/injection, schedule: Q01DX009 (ip), vehicle: saline with Tween-80
[11] = dose: 200.0 mg/kg/injection, schedule: Q04DX002 (ip), vehicle: saline with Tween-80
[12] = dose: 400.0 mg/kg/injection, schedule: Q01DX009 (ip), vehicle: saline with Tween-80
[13] = dose: 200.0 mg/kg/injection, schedule: Q01DX009 (ip), vehicle: Klucel (hydroxypropylcellulose) (HPC)
[14] = dose: 400.0 mg/kg/injection, schedule: Q01DX009 (ip), vehicle: Klucel (hydroxypropylcellulose) (HPC)
[15] = dose: 100.0 mg/kg/injection, schedule: Q01DX001 (ip), vehicle: saline
[16] = dose: 200.0 mg/kg/injection, schedule: Q01DX001 (ip), vehicle: saline
[17] = dose: 400.0 mg/kg/injection, schedule: Q01DX001 (ip), vehicle: saline
[18] = dose: 200.0 mg/kg/injection, schedule: Q04DX003 (ip), vehicle: saline with Tween-80
[19] = dose: 400.0 mg/kg/injection, schedule: Q04DX003 (ip), vehicle: saline with Tween-80

Measured: T/C

CSc1nc(C)c(C=O)s1
inactive: dose: 100.0 mg/kg/injection, schedule: Q01DX001 (ip), vehicle: carboxymethylcellulose (CMC) 100 % of control | dose: 200.0 mg/kg/injection, schedule: Q01DX001 (ip), vehicle: carboxymethylcellulose (CMC) 96 % of control | dose: 400.0 mg/kg/injection, schedule: Q01DX001 (ip), vehicle: carboxymethylcellulose (CMC) 94 % of control

S=C(NCc1ccc(Cl)c(Cl)c1)Nc1ccccc1
inactive: [1] 102 % of control | [2] 90 % of control | [3] 87 % of control and 90 % of control

OC(c1ccccc1)C(O)c1ccccc1 (stereo unspecified)
inactive: dose: 5.0 mg/kg/injection, schedule: Q01DX001 (ip), vehicle: saline 103 % of control | dose: 10.0 mg/kg/injection, schedule: Q01DX001 (ip), vehicle: saline 100 % of control | dose: 12.5 mg/kg/injection, schedule: Q01DX009 (ip), vehicle: Klucel (hydroxypropylcellulose) (HPC) 93 % of control | dose: 20.0 mg/kg/injection, schedule: Q01DX001 (ip), vehicle: saline 97 % of control | [1] 92 % of control | dose: 40.0 mg/kg/injection, schedule: Q01DX001 (ip), vehicle: saline 92 % of control | [2] 93 % of control | dose: 80.0 mg/kg/injection, schedule: Q01DX001 (ip), vehicle: saline 98 % of control

[Si]c1ccc(-c2ccccc2)cc1
inactive: dose: 25.6 mg/kg/injection, schedule: Q04DX002 (ip), vehicle: saline with Tween-80 101 % of control | dose: 64.0 mg/kg/injection, schedule: Q04DX002 (ip), vehicle: saline with Tween-80 97 % of control | [4] 87 % of control | dose: 160.0 mg/kg/injection, schedule: Q04DX002 (ip), vehicle: saline with Tween-80 87 % of control | [5] 90 % of control

C/C=C/CC1(CCC)C(=O)NC(=O)NC1=O
inactive: dose: 75.0 mg/kg/injection, schedule: Q01DX001 (ip), vehicle: saline 100 % of control | dose: 150.0 mg/kg/injection, schedule: Q01DX001 (ip), vehicle: saline 98 % of control | dose: 300.0 mg/kg/injection, schedule: Q01DX001 (ip), vehicle: saline 104 % of control

Nc1ccc(OCCNS(=O)(=O)c2cccc(S(=O)(=O)F)c2)c(Cl)c1
inactive: dose: 50.0 mg/kg/injection, schedule: Q01DX009 (ip), vehicle: saline 97 % of control | dose: 100.0 mg/kg/injection, schedule: Q01DX009 (ip), vehicle: saline 102 % of control | [6] 97 % of control | [7] 97 % of control

CCc1cc(C)cc(OC(=O)Nc2cc(Cl)ccc2OC)c1
inactive: dose: 100.0 mg/kg/injection, schedule: Q01DX001 (ip), vehicle: saline with Tween-80 104 % of control | [8] 95 % of control | [9] 94 % of control and 95 % of control | dose: 200.0 mg/kg/injection, schedule: Q01DX001 (ip), vehicle: saline with Tween-80 93 % of control | [10] 93 % of control | [11] 95 % of control and 90 % of control | dose: 400.0 mg/kg/injection, schedule: Q01DX001 (ip), vehicle: saline with Tween-80 95 % of control | [12] 119 % of control | [5] 95 % of control and 86 % of control

CCCCOc1cc([N+](=O)[O-])ccc1CO
inactive: [8] 109 % of control | [10] 98 % of control | [12] 98 % of control

C=CCN1CCC(C(=O)OC)(c2ccccc2)CC1
inactive: [6] 96 % of control | [7] 103 % of control

COc1ccc(OC)c(NC(=O)C2CC2)c1
inactive: [6] 94 % of control | [7] 99 % of control | dose: 400.0 mg/kg/injection, schedule: Q04DX003 (ip), vehicle: saline 103 % of control

O=[N+]([O-])c1cc(S(=O)(=O)c2ccc(Cl)c([N+](=O)[O-])c2)ccc1Cl
inactive: [1] 92 % of control | [2] 92 % of control | [3] 90 % of control | [13] 92 % of control | [14] 87 % of control

CC/C(I)=C(/CC)S(=O)(=O)c1ccc(C)cc1
inactive: [15] 101 % of control | [8] 98 % of control | [16] 103 % of control | [10] 102 % of control | [17] 111 % of control | [12] 98 % of control

O=C(OCC1OC(n2c(=O)[nH]cc(F)c2=O)C(OC(=O)c2ccccc2)C1OC(=O)c1ccccc1)c1ccccc1 (stereo unspecified)
inactive: dose: 12.5 mg/kg/injection, schedule: Q01DX005 (ip), vehicle: saline 121 % of control | dose: 20.0 mg/kg/injection, schedule: Q01DX005 (ip), vehicle: Klucel (hydroxypropylcellulose) (HPC) 108 % of control | dose: 100.0 mg/kg/injection, schedule: Q01DX005 (ip), vehicle: saline 94 % of control | dose: 200.0 mg/kg/injection, schedule: Q01DX005 (ip), vehicle: saline 93 % of control and 92 % of control
active: dose: 25.0 mg/kg/injection, schedule: Q01DX005 (ip), vehicle: saline 152 % of control | dose: 50.0 mg/kg/injection, schedule: Q01DX005 (ip), vehicle: saline 196 % of control and 206 % of control | dose: 80.0 mg/kg/injection, schedule: Q01DX005 (ip), vehicle: Klucel (hydroxypropylcellulose) (HPC) 209 % of control

NNc1cc(S(=O)(=O)O)cc2cc(S(=O)(=O)O)cc(O)c12
inactive: dose: 75.0 mg/kg/injection, schedule: Q01DX009 (ip), vehicle: Klucel (hydroxypropylcellulose) (HPC) 107 % of control | dose: 150.0 mg/kg/injection, schedule: Q01DX009 (ip), vehicle: Klucel (hydroxypropylcellulose) (HPC) 107 % of control | dose: 300.0 mg/kg/injection, schedule: Q01DX009 (ip), vehicle: Klucel (hydroxypropylcellulose) (HPC) 104 % of control

CC1C=CC(C)C(C(=O)c2ccccc2)C1C(=O)c1ccccc1 (stereo unspecified)
inactive: [3] 93 % of control | [8] 106 % of control | dose: 100.0 mg/kg/injection, schedule: Q04DX003 (ip), vehicle: Klucel (hydroxypropylcellulose) (HPC) 89 % of control | [13] 94 % of control | [10] 97 % of control | dose: 200.0 mg/kg/injection, schedule: Q04DX003 (ip), vehicle: Klucel (hydroxypropylcellulose) (HPC) 88 % of control | [14] 92 % of control | [12] 93 % of control | dose: 400.0 mg/kg/injection, schedule: Q04DX003 (ip), vehicle: Klucel (hydroxypropylcellulose) (HPC) 88 % of control

O=C(CCl)Nc1cc(Cl)c(Cl)cc1Cl
inactive: [4] 97 % of control | [18] 97 % of control | [19] 106 % of control

CCOC(=O)CCC1(C(=O)OC)C(=O)CCCCCCC1C(=O)OC (stereo unspecified)
inactive: [4] 103 % of control | [18] 99 % of control | [19] 96 % of control

CCOC(=O)C1CN(Cc2ccccc2)C(=O)C1=O (stereo unspecified)
inactive: dose: 50.0 mg/kg/injection, schedule: Q01DX001 (ip), vehicle: saline 102 % of control | dose: 75.0 mg/kg/injection, schedule: Q01DX009 (ip), vehicle: saline 101 % of control | [15] 102 % of control | dose: 150.0 mg/kg/injection, schedule: Q01DX009 (ip), vehicle: saline 99 % of control | [16] 102 % of control | dose: 300.0 mg/kg/injection, schedule: Q01DX009 (ip), vehicle: saline 99 % of control | [17] 114 % of control

ON=C1CCCCC1
inactive: dose: 75.0 mg/kg/injection, schedule: Q01DX009 (ip), vehicle: other 95 % of control | [15] 88 % of control | [8] 96 % of control | dose: 100.0 mg/kg/injection, schedule: Q04DX002 (ip), vehicle: other 111 % of control | [9] 97 % of control | dose: 150.0 mg/kg/injection, schedule: Q01DX009 (ip), vehicle: other 105 % of control | [16] 96 % of control | [10] 94 % of control | dose: 200.0 mg/kg/injection, schedule: Q04DX002 (ip), vehicle: other 97 % of control | [11] 94 % of control | dose: 300.0 mg/kg/injection, schedule: Q01DX009 (ip), vehicle: other 94 % of control | [17] 93 % of control | [12] 91 % of control | dose: 400.0 mg/kg/injection, schedule: Q04DX002 (ip), vehicle: other 97 % of control | [5] 102 % of control
